Source: ChEMBL document CHEMBL5038649, “Chemical Space Expansion of Flavonoids: Induction of Mitotic Inhibition by Replacing Ring B with a 10π-Electron System, Benzo[b]thiophene” (J Nat Prod, 2022)
Active and inactive are the calls of the source. The rule behind the calls is not given here.

Experiments:
[1] = test system: A549; experiment: Antiproliferative activity against human A549 cells assessed as reduction in cell viability after 72 hrs by SRB assay; type: functional, cell-based; details: A549, 72 h
[2] = test system: MDA-MB-231; experiment: Antiproliferative activity against human MDA-MB-231 cells assessed as reduction in cell viability after 72 hrs by SRB assay; type: functional, cell-based; details: MDA-MB-231, 72 h
[3] = test system: MCF7; experiment: Antiproliferative activity against human MCF7 cells assessed as reduction in cell viability after 72 hrs by SRB assay; type: functional, cell-based; details: MCF7, 72 h
[4] = test system: KB; experiment: Antiproliferative activity against human KB cells assessed as reduction in cell viability after 72 hrs by SRB assay; type: functional, cell-based
[5] = Antiproliferative activity against human KB-VIN cells assessed as reduction in cell viability after 72 hrs by SRB assay; type: functional, cell-based; details: KBVIN
[6] = test system: MDA-MB-231; experiment: Cell cycle arrest in human MDA-MB-231 cells assessed as accumulation at G2/M phase incubated for 24 hrs by propidium iodide staining based flow cytometric analysis; type: functional
[7] = biological target: Tubulin (Homo sapiens) (UniProt P68371+Q9H4B7+P0DPH7+P68366+Q13509+Q71U36+P04350+Q3ZCM7+P07437+P68363+Q9BQE3+Q6PEY2+Q13885+Q9BVA1+Q9BUF5); experiment: Induction of microtubule depolymerization in human MDA-MB-231 cells assessed as spindle formation incubated for 24 hrs by immunofluorescence staining based confocal microscopic analysis; type: cell-based

Structure (SMILES): O=C(/C=C/c1csc2ccccc12)c1c(O)ccc2ccccc12
- IC50 [1]: 580 nM
- IC50 [2]: 800 nM
- IC50 [3]: 890 nM
- IC50 [4]: 640 nM
- IC50 [5]: 480 nM
- Activity [6]: Dose-Dependent Effect
- Activity [7]: Active

Structure (SMILES): COc1cc2occ(-c3csc4ccccc34)c(=O)c2c(OC)c1OC
- IC50 [1]: 640 nM
- IC50 [2]: 820 nM
- IC50 [3]: 740 nM
- IC50 [4]: 820 nM
- IC50 [5]: 510 nM
- Activity [6]: Dose-Dependent Effect
- Activity [7]: inactive

Structure (SMILES): COc1ccc(/C=C\c2cc(OC)c(OC)c(OC)c2)cc1O
- Activity [6]: Dose-Dependent Effect
- Activity [7]: Active

Structure (SMILES): COc1cc2c(c(OC)c1OC)O/C(=C\c1csc3ccccc13)C2=O
- IC50 [1]: 590 nM
- IC50 [2]: 800 nM
- IC50 [3]: 750 nM
- IC50 [4]: 610 nM
- IC50 [5]: 480 nM
- Activity [6]: Dose-Dependent Effect
- Activity [7]: inactive
